In patent publication US20030013099A1, “Genes regulated by DNA methylation in colon tumors” (priority 2001, published 2003):

Tested on: HMEC cells
Assay: microarray differential expression, HMEC cells treated with Aza
Assay type: cell-based, human
Conditions: vs untreated, log base 2, negative = upregulation
Protocol: HT29 cells were derived from a Grade II adenocarcinoma of the colon obtained from a person. HCT116 cells are a subpopulation of malignant cells isolated from a primary cell culture of a single human colonic carcinoma (Brattain et al. (1981) Cancer Res 41:1751-6). HMEC cells are a primary human epithelial cell line derived from the breast tissue of a normal donor. […] Treated cells were exposed to 500 nM 5-aza-2-deoxycytidine (Aza; Sigma-Aldrich) 24 hours after passage in complete culture medium. Control cultures were treated in parallel with phosphate buffered saline vehicle. After twenty-four hours, culture medium was replaced with drug-free medium. Control and Aza-treated cells were subcultured at equal densities at 1 and 5 days after the initial treatment, and proliferation was measured at the subsequent time point using a Coulter counter (Beckman Coulter, Fullerton Calif.). […]
Cells were harvested and lysed in 1 ml of TRIZOL reagent (5×10^6 cells/ml; Invitrogen). The lysates were vortexed thoroughly and incubated at room temperature for 2-3 minutes and extracted with 0.5 ml chloroform. The extract was mixed, incubated at room temperature for 5 minutes, and centrifuged at 16,000× g for 15 minutes at 4° C. The aqueous layer was collected, and an equal volume of isopropanol was added. Samples were mixed, incubated at room temperature for 10 minutes, and centrifuged at 16,000× g for 20 minutes at 4° C. The supernatant was removed, and the RNA pellet was washed with 1 ml of 70% ethanol, centrifuged at 16,000× g at 4° C., and resuspended in RNAse-free water. The concentration of the RNA was determined by measuring the optical density at 260 nm.
Poly(A) RNA was prepared using an OLIGOTEX mRNA kit (Qiagen) with the following modifications: OLIGOTEX beads were washed in tubes instead of on spin columns, resuspended in elution buffer, and then loaded onto spin columns to recover mRNA. To obtain maximum yield, the mRNA was eluted twice.
Each poly(A) RNA sample was reverse transcribed using MMLV reverse-transcriptase, 0.05 pg/μl oligo-d(T) primer (21mer), 1× first strand buffer, 0.03 units/ul RNAse inhibitor, 500 uM dAT?, 500 uM dGTP, 500 uM dTTP, 40 uM dCTP, and 40 uM either dCTP-Cy3 or dCTP-Cy5 (APB). The reverse transcription reaction was performed in a […] volume containing 200 ng poly(A) RNA using the GEMBRIGHT kit (Incyte Genomics). Specific control poly(A) RNAs (YCFRO6, YCFR45, YCFR67, YCFR85, YCFR43, YCFR22, YCFR23, YCFR25, YCFR44, YCFR26) were synthesized by in vitro transcription from non-coding yeast genomic DNA (W. Lei, unpublished). As quantitative controls, control mRNAs (YCFRO6, YCFR45, YCFR67, and YCFR85) at 0.002 ng, 0.02 ng, 0.2 ng, and 2 ng were diluted into reverse transcription reaction at ratios of 1:100,000, 1:10,000, 1:1000, 1:100 (w/w) to sample mRNA, respectively. To sample differential expression patterns, control mRNAs (YCFR43, YCFR22, YCFR23, YCFR25, YCFR44, YCFR26) were diluted into reverse transcription reaction at ratios of 1:3, 3:1, 1:10, 10:1, 1:25, 25:1 (w/w) to sample mRNA. Reactions were incubated at 37° C. for 2 hours, treated with […] of 0.5M sodium hydroxide, and incubated for 20 minutes at 85° C. to the stop the reaction and degrade the RNA.
cDNAs were purified using two successive CHROMA SPIN 30 gel filtration spin columns (Clontech). Cy3- and Cy5-labeled reaction samples were combined as described below and ethanol precipitated using […] of 100% ethanol. The cDNAs were then dried to completion using a SpeedVAC system (Savant Instruments, Holbrook N.Y.) and resuspended in 14 μl 5× SSC, 0.2% SDS.
Hybridization reactions contained 9 μl of sample mixture containing 0.2 μg each of Cy3 and CyS labeled cDNA synthesis products in 5× SSC, 0.2% SDS hybridization buffer. The mixture was heated to 65° C. for 5 minutes and was aliquoted onto the microarray surface and covered with an 1.8 cm^2 coverslip. […]

[1] = SEQ ID NO:33 cDNA clone YU62C03
[2] = SEQ ID NO:37, 38 MAGE-4b antigen
[3] = SEQ ID NO:49 phospholipid scramblase 1
[4] = SEQ ID NO:50 retinoid inducible gene 1
[5] = SEQ ID NO:51 interferon induced
[6] = SEQ ID NO:56 hepatitis C-associated microtubular aggregate
[7] = SEQ ID NO:58 Similar to keratin 7

Nc1ncn([C@H]2C[C@H](O)[C@@H](CO)O2)c(=O)n1 [Aza, 5-aza-2-deoxycytidine]
differential expression, Clone ID 4764233, HMEC t/Aza (9d) (SEQ ID NO:30 GAGE-8): 0.00
differential expression, Clone ID 2511379, HMEC t/Aza (4d) (SEQ ID NO:31 GAGE-7B): 0.32
differential expression, Clone ID 2511379, HMEC t/Aza (9d) (SEQ ID NO:31 GAGE-7B): 0.32
differential expression, Clone ID 2471817, HMEC t/Aza (4d) [1]: 0.07
differential expression, Clone ID 2471817, HMEC t/Aza (9d) [1]: 0.00
differential expression, Clone ID 3333736, HMEC t/Aza (4d) (SEQ ID NO:34 MAGE-11 antigen): 0.06
differential expression, Clone ID 3333736, HMEC t/Aza (9d) (SEQ ID NO:34 MAGE-11 antigen): 0.00
differential expression, Clone ID 1304365, HMEC t/Aza (4d) (SEQ ID NO:35 GAGE-8): 0.00
differential expression, Clone ID 1304365, HMEC t/Aza (9d) (SEQ ID NO:35 GAGE-8): 0.00
differential expression, Clone ID 2657056, HMEC t/Aza (4d) [2]: 0.13
differential expression, Clone ID 2657056, HMEC t/Aza (9d) [2]: 0.00
differential expression, Clone ID 2507719, HMEC t/Aza (4d) (SEQ ID NO:39 MAGE-9 antigen): −0.48
differential expression, Clone ID 2507719, HMEC t/Aza (9d) (SEQ ID NO:39 MAGE-9 antigen): −0.24
differential expression, Clone ID 4688, HMEC t/Aza (4d) (SEQ ID NO:41 MAGE-1): −0.13
differential expression, Clone ID 4688, HMEC t/Aza (9d) (SEQ ID NO:41 MAGE-1): −0.13
differential expression, Clone ID 2068708, HMEC t/Aza (4d) (SEQ ID NO:42 HM74): −0.50
differential expression, Clone ID 2068708, HMEC t/Aza (9d) (SEQ ID NO:42 HM74): −0.24
differential expression, Clone ID 23770, HMEC t/Aza (4d) (SEQ ID NO:43 1-8D): −0.48
differential expression, Clone ID 23770, HMEC t/Aza (9d) (SEQ ID NO:43 1-8D): −0.63
differential expression, Clone ID 1616783, HMEC t/Aza (4d) (SEQ ID NO:45 Incyte Unique): −0.53
differential expression, Clone ID 1616783, HMEC t/Aza (9d) (SEQ ID NO:45 Incyte Unique): −0.20
differential expression, Clone ID 820942, HMEC t/Aza (4d) (SEQ ID NO:46 cDNA FLJ20120): −0.48
differential expression, Clone ID 820942, HMEC t/Aza (9d) (SEQ ID NO:46 cDNA FLJ20120): −0.20
differential expression, Clone ID 891322, HMEC t/Aza (4d) (SEQ ID NO:47 Incyte Unique): 0.00
differential expression, Clone ID 891322, HMEC t/Aza (9d) (SEQ ID NO:47 Incyte Unique): 0.00
differential expression, Clone ID 2755836, HMEC t/Aza (4d) (SEQ ID NO:48 U5 A RNA): −0.26
differential expression, Clone ID 2755836, HMEC t/Aza (9d) (SEQ ID NO:48 U5 A RNA): −0.31
differential expression, Clone ID 1227521, HMEC t/Aza (4d) [3]: −0.19
differential expression, Clone ID 1227521, HMEC t/Aza (9d) [3]: −0.63
differential expression, Clone ID 2200842, HMEC t/Aza (4d) [4]: 0.00
differential expression, Clone ID 2200842, HMEC t/Aza (9d) [4]: 0.00
differential expression, Clone ID 2238363, HMEC t/Aza (4d) [5]: −0.50
differential expression, Clone ID 2238363, HMEC t/Aza (9d) [5]: −0.29
differential expression, Clone ID 1495382, HMEC t/Aza (4d) (SEQ ID NO:53 TRAIL): −0.48
differential expression, Clone ID 1495382, HMEC t/Aza (9d) (SEQ ID NO:53 TRAIL): −0.19
differential expression, Clone ID 1998269, HMEC t/Aza (4d) (SEQ ID NO:55 rhoB): −0.29
differential expression, Clone ID 1998269, HMEC t/Aza (9d) (SEQ ID NO:55 rhoB): −0.68
differential expression, Clone ID 1919287, HMEC t/Aza (4d) [6]: 0.00
differential expression, Clone ID 1919287, HMEC t/Aza (9d) [6]: 0.00
differential expression, Clone ID 2637446, HMEC t/Aza (4d) (SEQ ID NO:57 HE4 protein): 0.00
differential expression, Clone ID 2637446, HMEC t/Aza (9d) (SEQ ID NO:57 HE4 protein): 0.00
differential expression, Clone ID 1962141, HMEC t/Aza (4d) [7]: 0.00
differential expression, Clone ID 1962141, HMEC t/Aza (9d) [7]: −0.07
differential expression, Clone ID 4933404, HMEC t/Aza (4d) (SEQ ID NO:60 Incyte Unique): 0.96
differential expression, Clone ID 4933404, HMEC t/Aza (9d) (SEQ ID NO:60 Incyte Unique): 0.48
differential expression, Clone ID 2150288, HMEC t/Aza (4d) (SEQ ID NO:61 Keratin 8): −0.67
differential expression, Clone ID 2150288, HMEC t/Aza (9d) (SEQ ID NO:61 Keratin 8): −0.42
differential expression, Clone ID 2697455, HMEC t/Aza (4d) (SEQ ID NO:61 Keratin 8): −0.63
differential expression, Clone ID 2697455, HMEC t/Aza (9d) (SEQ ID NO:61 Keratin 8): −0.37
